Results: patent EP0403301B1, “Aerosols of pyrido[1,2-a]pyrimidine compounds” (TOKYO TANABE COMPANY LIMITED, priority 1989, dated 1990)
Converted amounts (≈) assume the structure as drawn.

Assays:
Assay type in all cases: physicochemical
solubility in water = test: solubility in water
Description: (§1) Inhalations for use as antiallergic agents include aqueous solution type aerosol inhalations, solution type aerosol inhalations and suspension type aerosol inhalations. The solubilities of pyrido[1,2-a]pyrimidine compounds in water are very low. For example, the solubility of 9-[(4-acetyl-3-hydroxy-2-n-propylphenoxy)methyl]-3-(1H-tetrazol-5-yl)-4H-pyrido[1,2-a]pyrimidin-4-one (hereinafter referred to as AS-35) in water is as low as 0.4 µg/ml. Accordingly, it would be impractical to prepare an aqueous solution type aerosol inhalation of AS-35, because this would require massive containers and devices. Moreover, in order to prepare a solution type aerosol inhalation of a pyrido[1,2-a]pyrimidine compound, it must be dissolved in a propellant or a mixture of a propellant and a commonly used solubilizing agent. […] Moreover, AS-35 is also insoluble in mixtures of such propellants and commonly used solubilizing agents. Thus, it is impossible to prepare a solution type aerosol inhalation of AS-35.

[1] = solubility in propellants and in propellant/solubilizing agent mixtures; conditions: Freon 11, 12, 13, 21, 22, 113, 114, 115, 123, 124, 132b, 133a, 134a, 141b, 142b, 152a, 225ca, 225cb, C318
Description: as §1

[2] = dispersibility and cohesiveness of fine particles in propellant with dispersant (naked eye); conditions: AS-148 in place of AS-35
Description: First of all, a series of experiments were carried out to evaluate the effectiveness of conventional dispersants. More specifically, various ester forms of non-ionic surfactants which are non-irritating to the site of application were tested by using an aerosol composition consisting of finely powdered AS-35 and a propellant comprising a 4:6 mixture of Freon 11 and Freon 12. Thus, the solubility of the dispersants in the propellant, the dispersibility of fine particles, the cohesiveness of fine particles, and variation in the amount delivered were examined.
Among the aforesaid test items, the solubility of a dispersant in the propellant was evaluated by placing 90 mg of the dispersant in a transparent container made of polyethylene terephthalate (hereinafter referred to as PET), attaching a valve thereto, injecting the propellant (i.e., a 4:6 mixture of Freon 11 and Freon 12) thereinto until the contents amounted to 12.0 g, shaking the container vigorously, and then observing the contents with the naked eye. […]

CCCc1c(OCc2cccn3c(=O)c(-c4nnn[nH]4)cnc23)ccc(C(C)=O)c1O [AS-35, 9-[(4-acetyl-3-hydroxy-2-n-propylphenoxy)methyl]-3-(1H-tetrazol-5-yl)-4H-pyrido[1,2-a]pyrimidin-4-one]
solubility (solubility in water): 0.4 µg/mL (≈ 0.951 µM) | solubility in commonly used propellants [1]: entirely insoluble

CCCc1c(OCc2cccn3c(=O)c(CC(=O)O)cnc23)ccc(C(C)=O)c1O [AS-148, [9-(4-acetyl-3-hydroxy-2-n-propylphenoxymethyl)-4-oxo-pyrido[1,2-a]pyrimidin-3-yl]-acetic acid]
results of Table 1 (dispersibility, cohesiveness with conventional dispersants) [2]: exactly the same results as AS-35
